Assay [1] concerns lung cancer cells (A549). Conditions: BBB mimicking model, FIG. 5B.
Excerpt: In addition, the BBB mimicking model was manufactured in the same method of manufacturing the lung mimicking model, but astrocytes (Human Astrocytes) (ScienCell, #1800) were used instead of fibroblasts, human brain microvascular endothelial cells (HBMVEC) (Cell systems, ACBRI 376) were used instead of HUVECs as vascular endothelial cells, and the total culture periods were set to be different due to the difference in cell proliferation rates between the lung mimicking model and the BBB mimicking model. […] In the experimental method, as described in Example 1 above, blood vessel cells were treated with CD31, lung cancer cells were treated with cytokeratin 8, and the cells were photographed by using a confocal microscope, Carl Zeiss, LSM710.
The subject of assay [2] is lung cancer cells (A549). Conditions: lung mimicking model, FIG. 5A.
Description: Then, gelation was allowed at room temperature for 15 minutes. Then, after coating with collagen (0.03 mg/ml, 1 VL content) (sigma, collagen type I solution) and fibronectin (0.001%, 5 mg) (Sigma, F0895) for two hours at 37° C., a total of 20 μl of 4×10^6/ml of HUVEC (LONZA, HUVEC-Umbil vein, Pooled cells) as vascular endothelial cells was added into one of the cell culture channels, the chip was raised at 90°, and the cells were cultured for one to two hours so as to be adhered in a direction of the gel layer formed in the middle. Then, put the chip down to its original state, replace the medium, and when the vascular endothelial cells form one blood vessel layer starting from the gel layer in the middle, a total of 20 μl of 1×10^6/ml lung cancer cells (A549) were put on the same layer, the chip was raised at 90° and cultured overnight so that the chip was attached in the direction of the gel layer formed in the middle. Then, the chip was put down again, the medium was replaced, and cultured for 5 days, and it was confirmed whether the lung cancer cells migrated to the middle gel layer. After that, the chip was put down to the original state again, the medium was replaced, the cells were cultured for five days, and whether the lung cancer cells migrated to the middle gel layer was checked. […]

Where a name gives a salt, the structure may show the parent alone. Read-outs that look alike come from different tables or passages of the source.

`c1cc(CN2CCCNCCNCCCNCC2)ccc1CN1CCCNCCNCCCNCC1` [AMD3100, AMD3100 (octahydrochloride)]: the “metastasis of lung cancer cells” value in assay [1] (1 μg/ml and 5 μg/ml, treated for one day or six days, confocal microscope) is recorded as “reduced more”; in assay [2] (1 μg/ml and 5 μg/ml, treated for one day or six days, compared to the group to which AMD3100 is not treated, confocal microscope) it was “generally reduced”. The metastasis suppression result in assay [1] (1 μg/ml treated for one day, compared among treatment groups) is recorded as “best metastasis suppression”; in assay [2] (1 μg/ml treated for six days, compared among treatment groups), “best metastasis suppression”.

The values above are taken from US20250198987A1, “SYSTEM FOR MEASURING METASTATIC POTENTIAL OF CANCER CELLS AND METHOD FOR MEASURING METASTATIC POTENTIAL OF CANCER CELLS BY USING SAME” (Seoul National University Hospital, priority 2020, published 2025).
